How the values were obtained:
[1] = DPPH radical scavenging test (antioxidant activity); conditions: for IC50: − means no activity
Description: The DPPH scavenging was assayed according to the reported method. The DPPH radical scavenging test was performed in 96-well microplates. Samples (compounds 1–12) were added to 180 μL (150 μmol/L) DPPH solution in EtOH at 20 μL solutions of different concentrations between 10 and 500 μM. After 30 min of light avoidance, absorbance at 517 nm using a microplate reader (Tecan Trading AG, Männedorf, Switzerland) was measured and the percentage of activity was calculated. All assays were performed in three replicates, and vitamin C was used as a positive control.

α-glucosidase = α-glucosidase (Saccharomyces cerevisiae, UniProt P53341); test: α-glucosidase inhibitory assay; type: biochemical; conditions: − means no activity
Sequence of α-glucosidase (P53341 whole entry): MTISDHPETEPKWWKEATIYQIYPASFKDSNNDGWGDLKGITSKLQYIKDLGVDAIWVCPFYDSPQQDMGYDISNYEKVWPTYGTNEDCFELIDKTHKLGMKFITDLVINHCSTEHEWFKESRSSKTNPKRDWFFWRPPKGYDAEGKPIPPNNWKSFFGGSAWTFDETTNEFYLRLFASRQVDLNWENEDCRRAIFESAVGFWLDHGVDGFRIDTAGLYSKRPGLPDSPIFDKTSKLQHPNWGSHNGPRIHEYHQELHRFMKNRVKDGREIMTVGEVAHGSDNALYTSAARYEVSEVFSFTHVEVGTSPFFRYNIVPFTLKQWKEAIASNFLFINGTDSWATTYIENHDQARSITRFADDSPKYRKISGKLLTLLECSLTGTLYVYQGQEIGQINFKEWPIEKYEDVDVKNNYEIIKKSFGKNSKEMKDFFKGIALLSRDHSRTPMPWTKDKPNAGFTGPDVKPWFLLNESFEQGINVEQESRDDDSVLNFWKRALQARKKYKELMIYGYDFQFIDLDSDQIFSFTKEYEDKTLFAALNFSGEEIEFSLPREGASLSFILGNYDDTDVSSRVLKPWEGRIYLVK
Description: The α-glucosidase inhibitory effect was assessed as described in our recently published paper.

Compound | Antioxidant % Inhibition (500 μM) [1] | IC50 [1] | IC50 (α-glucosidase)
C=CC(C)(C)[C@]12C=C(OC)C(=O)N3/C(=C/c4c[nH]cn4)C(=O)N[C@@]31N(OC)c1ccccc12 [Compound 5, oxaline] | <50% | > 500 µM | 
O=C(O)c1ccccc1-n1ncnc1Cc1ccc(O)cc1 [Compound 4, penipanoid A] | <50% | > 500 µM | 
CC(=O)Nc1ccccc1C(=O)OC[C@@H](O)CO [Compound 2, Asperflaloid B] | <50% | > 500 µM | 
C/C(=C/C(=O)NCCCC(=O)O)CCO [Compound 6, fuscoatramide] | <50% | > 500 µM | 
O=C(O)[C@H](Cc1ccc(O)cc1)n1cnc2ccccc2c1=O [Compound 1, Asperflaloid A] | <50% | > 500 µM | 
O=C(O)Cc1ccc(O)c(O)c1 [Compound 7, 3,4-dihydroxybenzeneacetic acid] | 96.6% | 14.4 µM | 
NC(=O)Cc1ccc(O)cc1 [Compound 10, 4-hydroxybenzeneacetamide] | 64.9% | 339 µM | 
O=C1O[C@H]([C@@H](O)CO)C(O)=C1O [Vitamin C, vitamin C, reference compound] | 96.4% | 26.7 µM | 
O=c1[nH]c(Cc2ccc(O)cc2)nc2ccccc12 [Compound 3, 2-(4-hydroxybenzyl)quinazolin-4(3H)-one] | <50% | > 500 µM | 
phenylacetic acid [Compound 9] | <50% | > 500 µM | > 1000 µM
COC(=O)Cc1ccc(O)c(O)c1 [Compound 8, 3,4-dihydroxyphenylacetic acid methyl ester] | 92% | 27.1 µM | 
N#CCc1ccc(O)cc1 [Compound 12, 4-hydroxyphenylacetonitrile] | <50% | > 500 µM | 
COC(=O)Cc1ccc(O)cc1 [Compound 11, 4-hydroxy phenylacetic acid methyl ester] | <50% | > 500 µM | 
